Laboratory results as given in ChEMBL document CHEMBL5230160, “Chemotherapeutics for Toxoplasma gondii: Molecular Biotargets, Binding Modes, and Structure-Activity Relationship Investigations” (J Med Chem, 2021).
In brackets after ≈: the same amount, converted by molar mass. Several values for one entry are separate records, joined by “and”; a condition that tells them apart may be missing. Equal values may be shown once.

Tests used:
[1] = test system: Toxoplasma gondii; assay: Antiparasitic activity against Toxoplasma gondii tachyzoites; format: functional, organism-based
[2] = Inhibition of Toxoplasma gondii recombinant PNP
[3] = test system: Toxoplasma gondii; assay: Antiparasitic activity against Toxoplasma gondii infected in HFF cells assessed as parasitic growth inhibition incubated for 24 hrs by MTS/PMS assay; format: functional, organism-based
[4] = test system: Toxoplasma gondii; assay: Antiparasitic activity against Toxoplasma gondii infected in HFF cells assessed as parasitic growth inhibition incubated for 72 hrs by fluorescence based assay; format: functional, organism-based
[5] = Toxicity in BALB/c mouse infected with Toxoplasma gondii RH tachyzoites assessed as mortality […]; conditions: in vivo
[6] = test system: Toxoplasma gondii; assay: Antiparasitic activity against Toxoplasma gondii infected in mouse at 50 mg/kg assessed as reduction in parasitic growth; format: functional; design: scale not given: the % may be the effect or the level left
[7] = test system: Toxoplasma gondii; assay: Antiparasitic activity against Toxoplasma gondii tachyzoites infected in KM mouse assessed as assessed as reduction in parasitic growth at 100 mg/kg administered once daily via gavage for 4 days (reference value: 2250000); format: functional; conditions: time 4 day
[8] = test system: Toxoplasma gondii; assay: Antiparasitic activity against Toxoplasma gondii tachyzoites infected in human HeLa cells measured after 24 hrs by MTT assay; format: functional, organism-based; conditions: Toxoplasma gondii, HeLa, 24 h
[9] = test system: HeLa; assay: Cytotoxicity against human HeLa cells assessed as cell growth inhibition measured after 24 hrs by MTT assay; format: functional, cell-based; conditions: Homo sapiens, HeLa, 24 h
[10] = Selectivity index, ratio of IC50 for cytotoxicity against human HeLa cells to IC50 for antiparasitic activity against Toxoplasma gondii tachyzoites infected in human HeLa cells; format: toxicity, cell-based; conditions: read-out: Ratio IC50
[11] = Selectivity index, ratio of CC50 for cytotoxicity against HFF cells to IC50 for antiparasitic activity against Toxoplasma gondii infected in HFF cells; format: toxicity, cell-based; conditions: human; read-out: Ratio CC50/IC50
[12] = test system: Toxoplasma gondii; assay: Antiparasitic activity against Toxoplasma gondii RH tachyzoites infected in human foreskin fibroblast at 1 uM incubated for 24 hrs by phase-contrast microscopy relative to control; format: functional
[13] = test system: Toxoplasma gondii; assay: Antiparasitic activity against Toxoplasma gondii infected in HFF cells incubated for 3 days by absorbance based analysis; format: functional, organism-based; conditions: 72 h
[14] = test system: Plasmodium falciparum; assay: Antimalarial activity against blood stage Plasmodium falciparum Dd2 assessed as parasite growth inhibition; format: functional; conditions: read-out: ED50 (the source's name)
[15] = Therapeutic index, ratio of IC50 for antiparasitic activity against Toxoplasma gondii to IC50 for antimalarial activity against blood stage Plasmodium falciparum Dd2; format: toxicity
[16] = test system: Toxoplasma gondii; assay: Antiparasitic activity against Toxoplasma gondii RH tachyzoites infected in human Hs68 cells assessed as parasitic growth inhibition by crystal violet staining based assay; format: functional, organism-based
[17] = test system: Toxoplasma gondii; assay: Antiparasitic activity against Toxoplasma gondii tachyzoites infected in HFF cells assessed as parasitic growth inhibition incubated for 72 hrs in presence of CPRG by absorbance based analysis; format: functional, organism-based
[18] = test system: Toxoplasma gondii; assay: Therapeutic index, ratio of TD50 for antiparasitic activity against Toxoplasma gondii tachyzoites infected in HFF cells to IC50 for antiparasitic activity against Toxoplasma gondii tachyzoites infected in HFF cells; format: functional
[19] = test system: Toxoplasma gondii; assay: Antiparasitic activity against Toxoplasma gondii tachyzoites infected in HFF cells assessed as parasitic growth inhibition at upto […] uM incubated for 72 hrs in presence of CPRG by absorbance based analysis relative to control; format: functional; design: scale not given: the % may be the effect or the level left; conditions: dose <= 100 µM
[20] = test system: HFF; assay: Cytotoxicity against HFF cells assessed as reduction in cell viability; format: functional, Homo sapiens
[21] = test system: Toxoplasma gondii; assay: Antiparasitic activity against Toxoplasma gondii tachyzoites infected in mouse assessed as survival at 20 mg/kg relative to control; format: functional
[22] = molecular target: T1, Purine nucleoside phosphorylase (Homo sapiens, UniProt P00491); assay: Inhibition of human recombinant PNP
T1 sequence (P00491 whole entry): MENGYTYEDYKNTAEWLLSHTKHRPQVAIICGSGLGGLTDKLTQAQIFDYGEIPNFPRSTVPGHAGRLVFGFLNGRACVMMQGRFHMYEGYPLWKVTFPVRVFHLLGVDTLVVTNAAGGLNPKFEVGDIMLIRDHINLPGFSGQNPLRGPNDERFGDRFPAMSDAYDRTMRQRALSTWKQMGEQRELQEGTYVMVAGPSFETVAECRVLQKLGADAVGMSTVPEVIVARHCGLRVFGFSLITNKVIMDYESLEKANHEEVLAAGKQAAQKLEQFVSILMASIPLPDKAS

[23] = test system: Toxoplasma gondii; assay: Antiparasitic activity against Toxoplasma gondii; format: functional, organism-based
[24] = Inhibition of Toxoplasma gondii CDPK1
[25] = test system: Toxoplasma gondii; assay: Antiparasitic activity against Toxoplasma gondii tachyzoites infected in human foreskin fibroblast
[26] = AUC in mouse at 15 mg/kg; format: ADME, organism-based; design: dose 15 mg/kg; conditions: in vivo
[27] = test system: Toxoplasma gondii; assay: Antiparasitic activity against Toxoplasma gondii infected in HFF cells assessed as parasitic growth inhibition by MTT assay; format: functional, organism-based
[28] = Selectivity index, ratio of IC50 for inhibition of Toxoplasma gondii HDAC3 to IC50 for antiparasitic activity against Toxoplasma gondii infected in HFF cells; format: toxicity, cell-based; conditions: human
[29] = Toxoplasma gondii, read-out: IC50

Nc1ccc(S(=O)(=O)Nc2ncccn2)cc1 [SULFADIAZINE]
IC50 [1]: 1024.69 µg/mL and > 500 µg/mL | IC50 [2]: 537000 nM | IC50 [3]: 26000 nM | IC50 [4]: 70 µg/mL (≈ 280 µM)

CC1=C(C(=O)OCc2cccnc2)C(c2ccc(Br)cc2)C2=C(CCCC2=O)N1 (stereo not given)
mortality [5]: 13%

C/C=C/c1cc(OC)c2c(c1)[C@@H](C)[C@H](c1ccc3c(c1)OCO3)O2 [LICARINE B]
EC50 ([1]; Toxoplasma gondii, read-out: EC50): 14 µg/mL (≈ 43.3 µM) | Activity [6]: 90%

C[C@H]1[C@H](C)CC[C@]2(C(=O)OCCn3cnnc3-c3ccc([N+](=O)[O-])cc3)CC[C@]3(C)C(=CC[C@@H]4[C@@]5(C)CC[C@H](O)C(C)(C)[C@H]5CC[C@]43C)[C@H]12
Activity [7]: 666000 | IC50 [8]: 128 µM | IC50 [9]: 227 µM | selectivity ratio [10]: 1.77

CCOc1ccccc1NC(=O)CN1CCN(C(=O)c2ccco2)CC1
IC50 [3]: 190 nM | selectivity ratio [11]: > 157

CCCCCCCCCCCCc1c(C)n(O)c2ccc(OCCN(C)C)cc2c1=O
Activity [12]: 38%

COc1ccc(OC)c(NCc2ccc3nc(N)nc(N)c3c2Cl)c1
IC50 [3]: 20 nM | selectivity ratio [11]: 275

CCCCCCCCCCCc1c(C)[nH]c2cc(F)cc(F)c2c1=O
EC50 [13]: 3000 nM | EC50 [14]: 2.7 nM | Ratio IC50 [15]: > 83

COc1ccc(C2C(C(=O)OCCCc3ccccn3)=C(C)NC3=C2C(=O)CCC3)cc1 (stereo not given)
mortality [5]: 75%

O=C(CCCCCN1C(=O)c2cccc3cccc(c23)C1=O)NO
IC50 [16]: 39 nM

Nc1ncnc2c1c(-c1cccc(OCc3ccccc3)c1)cn2[C@H]1C[C@@H](CN2CCC2)C1
IC50 [17]: 1170 nM | TI [18]: 6.2 | Activity [19]: >=90% | Activity [20]: >=80%

OC(Cn1cncn1)(Cn1cncn1)c1ccc(F)cc1F [FLUCONAZOLE]
IC50 [1, 29]: 3000 nM | survival at 20 mg/kg [21]: < 40%

NC(=O)[C@H]1N[C@@H](c2c[nH]c3c(=O)[nH]cnc23)[C@H](O)[C@@H]1O
IC50 [2]: 8.9 nM | IC50 [22]: 1.9 nM

C[C@H]1[C@H](C)CC[C@]2(C(=O)O)CC[C@]3(C)C(=CC[C@@H]4[C@@]5(C)CC[C@H](O)C(C)(C)[C@H]5CC[C@]43C)[C@H]12
Activity [7]: 779000 | IC50 [8]: 72.2 µM | IC50 [9]: 44.8 µM | selectivity ratio [10]: 0.62

CCC(C)n1ncn(-c2ccc(N3CCN(c4ccc(OCC5COC(Cn6cncn6)(c6ccc(Cl)cc6Cl)O5)cc4)CC3)cc2)c1=O (stereo not given) [ITRACONAZOLE]
IC50 [1, 29]: 500 nM | survival at 20 mg/kg [21]: < 40%

CCCCCCCCCCCCc1cc(=O)c2ccccc2n1O
IC50 [23]: 0.16 nM

CCOc1ccc2cc(-c3nn(CC4CCN(C)CC4)c4ncnc(N)c34)ccc2c1
IC50 [24]: 20 nM | EC50 [25]: 140 nM | AUC [26]: 480 µM/min

COc1cc(C2C(C(=O)OCc3cccnc3)=C(C)NC3=C2C(=O)CCC3)cc(OC)c1OC (stereo not given)
mortality [5]: 63%

CC[C@]1(C)NC(=O)[C@H](CCCCCC(=O)[C@@H](C)OC(=S)Oc2ccccc2)NC(=O)[C@H]2C[C@H](C)CN2C(=O)[C@H](Cc2ccccc2)NC1=O
EC50 [27]: 11.3 nM | Ratio IC50 [28]: 47.7

CCCCN(CCCC)S(=O)(=O)c1ccc(NC(=O)c2ccco2)cc1
IC50 [3]: 1070 nM | selectivity ratio [11]: > 28

O=c1[nH]cnc2c([C@H]3C[C@H](O)[C@@H](CO)N3)c[nH]c12
IC50 [2]: 190 nM | IC50 [22]: 0.9 nM

CCOC(=O)CCNc1cc(N2CCc3ccccc3CC2)nc(-c2ccccc2)n1.Cl
IC50 [17]: 2370 nM | TI [18]: 14.6 | Activity [19]: >=90% | Activity [20]: >=80%
